In brackets after ≈: the same amount, converted by molar mass. Counter-ions that a name gives are not always drawn. Like-named read-outs stand apart in the source and are kept apart here.
How the values were obtained:
[1] = cited from earlier work
[2] = addition of 100 mg ritonavir to 300 mg atazanavir; cited from earlier work
[3] = human, in vivo
[4] = cited from earlier work; remark: listed apart in the source
P-gp = conditions: cited from earlier work
gastric pH [5] = conditions: cited from earlier work
gastric pH [6] = assay: Intra-gastric pH monitoring with the Heidelberg pH capsule; assay type: in vivo, human
[7] = administered with Coca-Cola (pH = 2.5) compared to water; cited from earlier work
[8] = fed state, rabeprazole pretreated

COC(=O)N[C@H](C(=O)N[C@@H](Cc1ccccc1)[C@@H](O)CN(Cc1ccc(-c2ccccn2)cc1)NC(=O)[C@@H](NC(=O)OC)C(C)(C)C)C(C)(C)C [Atazanavir]
Solubility ([1]; pH 2): 5200 µg/mL (≈ 7.38 mM)
Solubility ([1]; pH 4): < 5 µg/mL
Increase in atazanavir AUC [2]: 238%
Increase in atazanavir Cmax [2]: 86%
AUClast lost due to rabeprazole that was restored by addition of BHCl [3]: 12%
Differences in Tmax across treatments [3]: No significant differences
Individual decrease in AUClast and Cmax after rabeprazole pretreatment [3]: 11-48%
Mean exposure lost due to rabeprazole that was restored by addition of BHCl [3]: 12-13%
Mean plasma concentration in Treatment C compared with Treatment B ([3]; 1.5 h): 3.4 times
Reductions in boosted atazanavir exposures ([4]; omeprazole 20 mg once daily): 39-46%
Exposure reductions ([4]; ritonavir-boosted atazanavir with omeprazole 40 mg once daily, light meal): 72-76%
Inhibitory effect of a known P-gp inhibitor on atazanavir efflux (P-gp; pH 5.5): 78%
Inhibitory effect of a known P-gp inhibitor on atazanavir efflux (P-gp; pH 7.4): 245%

C[N+](C)(C)CC(=O)O [BHCl, betaine hydrochloride]
Average onset of effect (time to achieve a pH < 3) (gastric pH [5]; pilot study, rabeprazole-pretreated healthy volunteers): ~5 minutes
Lowest observed gastric pH (gastric pH [6]; 1500 mg BHCl after rabeprazole pretreatment, fed state, mean ± SD): 0.838 ±0.391
Length of the reacidification period (time for gastric pH to rebound to pH >4) (gastric pH [6]; [8]): 76 ±20 minutes
Time to achieve lowest gastric pH after BHCl administration (gastric pH [6]; [8]): 67 ±33 minutes

CC(C)c1nc(CN(C)C(=O)N[C@H](C(=O)N[C@@H](Cc2ccccc2)C[C@H](O)[C@H](Cc2ccccc2)NC(=O)OCc2cncs2)C(C)C)cs1 [Ritonavir]
AUClast lost due to rabeprazole that was restored by addition of BHCl [3]: 13%
Cmax lost due to rabeprazole that was restored by addition of BHCl [3]: 12%

COc1ccc2[nH]c([S+]([O-])Cc3ncc(C)c(OC)c3C)nc2c1 (stereo not shown) [omeprazole]
Gastric pH around the time of atazanavir administration (gastric pH [5]; pretreatment with high-dose omeprazole): ~6

CC[C@@H]([C@H](C)O)n1ncn(-c2ccc(N3CCN(c4ccc(OC[C@@H]5CO[C@@](Cn6cncn6)(c6ccc(F)cc6F)C5)cc4)CC3)cc2)c1=O [posaconazole]
Increase in systemic exposure [7]: > 70%

COCCCOc1ccnc(C[S+]([O-])c2nc3ccccc3[nH]2)c1C (stereo not shown) [rabeprazole]
Gastric pH around the time of atazanavir administration (gastric pH [6]; pretreatment with rabeprazole, after light meal): ~3
